7 compounds from the supplement of paper PMC11061612 can be followed below.

The structures appear in SMILES notation.

Assay in all cases: Bliss excess, mean over the matrix (fraction); higher = more synergy
Test [1] has as its system ESO26 (Esophageal Adenocarcinoma). The procedure, abridged:
(§1)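 Bliss excess equals the observed combination effect minus the expected value EA + EB − EA·EB, where EA and EB are the effects of each agent alone. Combination Emax is the second-highest inhibition within the matrix. Inhibition was scaled from CellTiter-Glo 2.0 luminescence, with 0 set by vehicle wells and 1 by blank wells, after 72 hours of two-drug dosing of cells plated in 1536-well plates.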

The subject of another test is NB13 (Neuroblastoma). Summed up: as §1
The test system of test [2] is KYSE-140 (Esophageal Squamous Cell Carcinoma). The procedure, abridged: as §1
The subject of the next test is IM-9 (Non-Cancerous). The procedure, abridged:
as §1

Test [3] has as its system JHH-2 (Hepatocellular Carcinoma). Summed up: as §1
Another test has as its system EB2 (Burkitt's Lymphoma). Summed up: as §1
For test [4], the system named is CESS (Acute Myeloid Leukemia). Summed up:
as §1

Test [5] relates to LU-165 (Small Cell Lung Carcinoma). Summed up: as §1
Test [6] relates to DU-4475 (Breast Carcinoma). The procedure, abridged: as §1
The test system of test [7] is G-402 (Other Solid Carcinomas). Summed up:
as §1

Test [8] deals with MHH-ES-1 (Ewing's Sarcoma). The procedure, abridged:
as §1

Another test concerns EW-7 (Ewing's Sarcoma). Summed up:
as §1

The test system of test [9] is JVM-2 (B-Cell Non-Hodgkin's Lymphoma). The procedure, abridged:
as §1

A further test concerns WM1552C (Melanoma). Summed up:
as §1

The subject of test [10] is HCC1395 (Breast Carcinoma). Summed up: as §1
For test [11], the system named is SK-HEP-1 (Hepatocellular Carcinoma). The procedure, abridged: as §1
Test [12] has as its system SW620 (Colorectal Carcinoma). The procedure, abridged:
as §1

The test system of the next test is A101D (Melanoma). The procedure, abridged:
as §1

A further test deals with 5637 (Bladder Carcinoma). Summed up: as §1
The subject of test [13] is GA-10 (Burkitt's Lymphoma). The procedure, abridged: as §1

On to `NC1(C(=O)N[C@@H](CCO)c2ccc(Cl)cc2)CCN(c2ncnc3[nH]ccc23)CC1` [Capivasertib] + C[C@@H]1COCCN1C2=NC(=NC(=C2)C3(CC3)[S@](=N)(=O)C)C4=C5C=CNC5=NC=C4 [AZD6738] (first compound max 10 µM, 7x7, partner max 10 µM), for which the Bliss excess in [1] was -0.0364; with NB13 (Neuroblastoma) it was -0.0823; in test [2] it was -0.0846; in the test on IM-9 (Non-Cancerous), -0.0514; in test [3], -0.0651; in the test with EB2 (Burkitt's Lymphoma), -0.0714. Also, the Bliss excess in test [4] was 0.0044; in test [5], -0.01; in [6], 0.0226; in test [7], -0.017; in [8], -0.0259; in the test with EW-7 (Ewing's Sarcoma), 0.0021. Also, the Bliss excess in test [9] was -0.0607; in the test with WM1552C (Melanoma) it was -0.062; in test [10] it was -0.0687; in [11], -0.0744; in test [12] it was -0.0475; with A101D (Melanoma) it was -0.107. Also, the Bliss excess in the test with 5637 (Bladder Carcinoma) is -0.0846; in test [13] it was -0.0303.

Take `Cn1cnc2c(F)c(Nc3ccc(Br)cc3Cl)c(C(=O)NOCCO)cc21` [Selumetinib] + C[C@@H]1COCCN1C2=NC(=NC(=C2)C3(CC3)[S@](=N)(=O)C)C4=C5C=CNC5=NC=C4 [AZD6738] (first compound max 10 µM, 7x7, partner max 10 µM): the Bliss excess was -0.0189 in test [1]; -0.0446 in the test on NB13 (Neuroblastoma); -0.0888 in test [2]; -0.0817 in the test with IM-9 (Non-Cancerous); 0.0264 in test [3]; -0.071 with EB2 (Burkitt's Lymphoma). The Bliss excess in test [4] was -0.0205; in [5], -0.0284; in test [6] it was -0.0103; in test [7] it was -0.0353; in test [8], -0.046; in the test on EW-7 (Ewing's Sarcoma), 0.0112. For the same compound, the Bliss excess is -0.0344 in [9]; -0.0591 in the test on WM1552C (Melanoma); -0.0128 in test [10]; -0.034 in [11]; 0.0587 in test [12]; -0.0548 in the test on A101D (Melanoma). The Bliss excess in the test with 5637 (Bladder Carcinoma) is 0.0382; in [13] it was -0.0046.

Consider `Cc1c2c(nn1C)CSCc1cc(n(C)n1)CSc1cc(c3ccccc3c1)OCCCc1c(C(=O)O)n(C)c3c-2c(Cl)ccc13` [AZD5991] + C[C@@H]1COCCN1C2=NC(=NC(=C2)C3(CC3)[S@](=N)(=O)C)C4=C5C=CNC5=NC=C4 [AZD6738] (first compound max 1 µM, 7x7, partner max 10 µM), for which the Bliss excess is 0.0276 in test [1]; 0.012 in the test on NB13 (Neuroblastoma); 0.0119 in test [2]; -0.0532 with IM-9 (Non-Cancerous); 0.0115 in test [3]; -0.0097 in the test on EB2 (Burkitt's Lymphoma). The Bliss excess in [4] amounted to 0.066; in test [5], 0.0012; in test [6], 0.0233; in [7], 0.0386; in test [8] it was 0.0135; in the test on EW-7 (Ewing's Sarcoma) it was 0.0266. Moreover, the Bliss excess in test [9] was -0.0128; in the test on WM1552C (Melanoma), -0.0084; in test [10], 0.0307; in test [11] it was 0.0225; in test [12] it was 0.0191; with A101D (Melanoma), 0.0342. The Bliss excess was 0.0305 with 5637 (Bladder Carcinoma) and -0.018 in test [13].

For `COc1cccc(OCCCN)c1-c1cc(Nc2cnc(C#N)cn2)n[nH]1` [Prexasertib] + CN(C)CCCOc1ccc(-c2ccc3ncc4c(c3c2)n(C2CCOCC2)c(=O)n4C)cn1 [AZD0156] (first compound max 1 µM, 7x7, partner max 1 µM), the Bliss excess in test [1] is 0.0207; in the test with NB13 (Neuroblastoma), -0.0268; in test [2], -0.0129; in the test on IM-9 (Non-Cancerous), -0.0022; in [3] it was -0.0371; with EB2 (Burkitt's Lymphoma), -0.0088. For the same compound, the Bliss excess was 0.0062 in [4]; -0.0723 in [5]; -0.0171 in test [6]; 0.0003 in [7]; 0.0004 in test [8]; 0.025 in the test with EW-7 (Ewing's Sarcoma). The Bliss excess is -0.0104 in test [9]; -0.0036 in the test on WM1552C (Melanoma); -0.046 in [10]; -0.0206 in test [11]; -0.0032 in [12]; 0.0419 with A101D (Melanoma). The figures for the Bliss excess (in the test with 5637 (Bladder Carcinoma); in test [13]) were -0.0174 and 0.0213, respectively.

On to `COc1cccc(OCCCN)c1-c1cc(Nc2cnc(C#N)cn2)n[nH]1` [Prexasertib] + Cc1cc2ncnn2cc1Nc1ncc2c(n1)n(C1CCOCC1)c(=O)n2C [AZD7648] (first compound max 1 µM, 7x7, partner max 10 µM), for which the Bliss excess in test [1] was 0.0142; in the test on NB13 (Neuroblastoma), -0.023; in test [2] it was -0.0066; in the test with IM-9 (Non-Cancerous), -0.014; in test [3], -0.0348; in the test on EB2 (Burkitt's Lymphoma), -0.0306. In addition, the Bliss excess in test [4] is 0.0409; in test [5], -0.0422; in [6] it was 0.0256; in test [7], -0.0602; in test [8] it was -0.004; in the test with EW-7 (Ewing's Sarcoma) it was -0.0118. Besides, the Bliss excess in [9] is 0.0171; in the test with WM1552C (Melanoma), -0.0385; in test [10], -0.0527; in test [11], -0.0416; in test [12] it was -0.0177; with A101D (Melanoma), 0.0232. The Bliss excess with 5637 (Bladder Carcinoma) was -0.0423; in test [13] it was -0.0051.

Regarding `COc1nnc2ccc(N3CCC(c4ccc(OCCN5CCN(C)C(=O)[C@H]5C)cc4)CC3)nn12` [AZD5153] + Cc1c2c(nn1C)CSCc1cc(n(C)n1)CSc1cc(c3ccccc3c1)OCCCc1c(C(=O)O)n(C)c3c-2c(Cl)ccc13 [AZD5991] (first compound max 1 µM, 7x7, partner max 1 µM), the Bliss excess in test [1] is -0.0071; in the test with NB13 (Neuroblastoma), 0.0066; in test [2] it was -0.124; in the test on IM-9 (Non-Cancerous), -0.127; in test [3], -0.119; with EB2 (Burkitt's Lymphoma) it was -0.0614. The Bliss excess was -0.0124 in [4]; -0.0173 in test [5]; 0.0617 in test [6]; 0.044 in test [7]; -0.0049 in test [8]; 0.07 in the test with EW-7 (Ewing's Sarcoma). Also, the Bliss excess in test [9] was -0.0404; with WM1552C (Melanoma), -0.0694; in [10], -0.0112; in test [11] it was -0.085; in test [12] it was -0.0457; in the test with A101D (Melanoma), 0.0406. Besides, the Bliss excess in the test with 5637 (Bladder Carcinoma) is -0.0555; in test [13] it was -0.0598.

As to `COc1nnc2ccc(N3CCC(c4ccc(OCCN5CCN(C)C(=O)[C@H]5C)cc4)CC3)nn12` [AZD5153] + C[C@@H]1COCCN1C2=NC(=NC(=C2)C3(CC3)[S@](=N)(=O)C)C4=C5C=CNC5=NC=C4 [AZD6738] (first compound max 1 µM, 7x7, partner max 10 µM), the Bliss excess in test [1] was 0.0343; in the test with NB13 (Neuroblastoma), -0.0149; in [2], -0.0968; in the test on IM-9 (Non-Cancerous) it was -0.0697; in test [3] it was -0.0066; in the test with EB2 (Burkitt's Lymphoma), -0.0996. The Bliss excess in [4] is -0.0554; in [5], -0.0048; in test [6], 0.0294; in [7], 0.0025; in test [8], 0.0074; in the test on EW-7 (Ewing's Sarcoma), 0.034. Further, the Bliss excess in test [9] is -0.061; with WM1552C (Melanoma) it was -0.0783; in [10], -0.0241; in test [11] it was -0.0522; in test [12] it was 0.0276; in the test on A101D (Melanoma), -0.0186. Also, the Bliss excess with 5637 (Bladder Carcinoma) was -0.0001; in test [13], -0.0177.
